Tests used:
α-glucosidase [1] = target: α-glucosidase; parameters: method as in PMID 31838286; details: assay of template compounds B, Fig. 1 and Fig. 5; cited from earlier work
α-glucosidase [2] = target: T1, α-glucosidase (Saccharomyces cerevisiae, UniProt P53341); assay: Anti-α-glucosidase assay (p-nitrophenyl-α-D-glucopyranoside substrate, absorbance 405 nm); format: biochemical; details: for Inhibation: IC50 determination curve; for inhibition at 750 µM: read-out: In (%), inhibition percentage against α-glucosidase; for decrease of inhibitory activity relative to un-substituted derivative 13a: methyl group added to phenyl ring of 13a
T1 construct: the yeast form of α-glucosidase, which was extracted from Saccharomyces cerevisiae; purchased Sigma-Aldrich; host or cells: Saccharomyces cerevisiae (extracted)
Procedure: After this time, the p-nitrophenyl-α-D-glucopyranoside (25 μL, 4 mM) was added to the latter plate and allowed to incubate at 37 °C for 20 min. […] The percentage of inhibition (% inhibition) for each sample was calculated using the formula “[(Abs control − Abs sample)/Abs control] × 100”, and IC50 values were obtained from non-linear regression curve using the Logit method.[24]

[3] = IC50 (from IC50 determination curves, supplement), logarithmic fit of inhibition vs Conc., unit inferred

T1 sequence (P53341 whole entry): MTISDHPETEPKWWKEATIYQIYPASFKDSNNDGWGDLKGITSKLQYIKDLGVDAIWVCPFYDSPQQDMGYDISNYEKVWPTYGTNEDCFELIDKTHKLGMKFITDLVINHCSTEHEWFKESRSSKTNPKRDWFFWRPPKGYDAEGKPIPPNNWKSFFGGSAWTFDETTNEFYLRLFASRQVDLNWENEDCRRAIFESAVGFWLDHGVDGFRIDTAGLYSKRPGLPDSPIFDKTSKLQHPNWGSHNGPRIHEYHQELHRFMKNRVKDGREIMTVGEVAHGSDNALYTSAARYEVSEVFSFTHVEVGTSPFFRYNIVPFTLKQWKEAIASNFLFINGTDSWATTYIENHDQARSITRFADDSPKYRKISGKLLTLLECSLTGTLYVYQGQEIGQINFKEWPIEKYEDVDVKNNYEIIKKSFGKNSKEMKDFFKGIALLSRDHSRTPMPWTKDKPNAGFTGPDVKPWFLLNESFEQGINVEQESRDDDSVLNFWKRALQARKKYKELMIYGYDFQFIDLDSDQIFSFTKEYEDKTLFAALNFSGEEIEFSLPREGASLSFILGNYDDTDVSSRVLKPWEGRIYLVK

SMILES | IC50 (α-glucosidase [1]) [µM] | Inhibation (α-glucosidase [2]; Conc. 15 (unit not given)) | Inhibation (α-glucosidase [2]; Conc. 30 (unit not given)) | Inhibation (α-glucosidase [2]; Conc. 60 (unit not given)) | Inhibation (α-glucosidase [2]; Conc. 90 (unit not given)) | IC50 (α-glucosidase [2]; [3]) [µM] | inhibition at 750 µM (α-glucosidase [2]) [%] | further results
O=C(Cn1cc(COc2ccc(-c3nc4ccccc4[nH]3)cc2)nn1)Nc1ccccc1Cl [B (R = 2-Cl, n = 0)] | 70.6 |  |  |  |  |  |  | 
O=C(Cn1cc(COc2ccc(-c3nc4ccccc4[nH]3)cc2)nn1)Nc1ccccc1[N+](=O)[O-] [B (R = 2-Nitro, n = 0)] | 35 |  |  |  |  |  |  | 
O=C(Cn1cc(COc2ccc(-c3nc4ccccc4[nH]3)cc2)nn1)Nc1ccc(Br)cc1 [B (R = 4-Br, n = 0)] | 176 |  |  |  |  |  |  | 
O=C(Cn1cc(COc2ccc(-c3nc4ccccc4[nH]3)cc2)nn1)Nc1ccc(Cl)cc1 [B (R = 4-Cl, n = 0)] | 91.6 |  |  |  |  |  |  | 
COc1ccc(NC(=O)Cn2cc(COc3ccc(-c4nc5ccccc5[nH]4)cc3)nn2)cc1 [B (R = 4-OMe, n = 0)] | 112 |  |  |  |  |  |  | 
O=C(Cn1cc(COc2ccc(-c3nc4ccccc4[nH]3)cc2)nn1)Nc1ccccc1 [B (R = H, n = 0)] | 51.5 |  |  |  |  |  |  | 
O=C(Cn1cc(COc2ccc(-c3nc4ccccc4[nH]3)cc2)nn1)NCc1ccccc1 [B (R = H, n = 1)] | 121 |  |  |  |  |  |  | 
O=C(Cn1cc(COc2ccc(/C=N/Nc3nnc(-c4ccccc4)c(-c4ccccc4)n3)cc2)nn1)Nc1ccccc1 [Compound 13a, (E)-2-(4-((4-((2-(5,6-Diphenyl-1,2,4-triazin-3-yl)hydrazineylidene)methyl)phenoxy)methyl)-1H-1,2,3-triazol-1-yl)-N-phenylacetamide] |  | 76.53 | 81.33 | 89 | 93 | < 15 | 95 | Inhibation (α-glucosidase [2]; Conc. 120 (unit not given)): 94
Cc1ccccc1NC(=O)Cn1cc(COc2ccc(/C=N/Nc3nnc(-c4ccccc4)c(-c4ccccc4)n3)cc2)nn1 [Compound 13b, (E)-2-(4-((4-((2-(5,6-Diphenyl-1,2,4-triazin-3-yl)hydrazineylidene)methyl)phenoxy)methyl)-1H-1,2,3-triazol-1-yl)-N-(o-tolyl)acetamide] |  | 54.87 | 67 | 83 | 93 | 12.5 | 98 | IC50 (α-glucosidase [2]; IC50, yeast α-glucosidase, mean ± SD, at least three experiments): 12.5 ± 0.21 µM; decrease of inhibitory activity relative to un-substituted derivative 13a (α-glucosidase [2]): 15.6 fold
Cc1cccc(NC(=O)Cn2cc(COc3ccc(/C=N/Nc4nnc(-c5ccccc5)c(-c5ccccc5)n4)cc3)nn2)c1 [Compound 13c, (E)-2-(4-((4-((2-(5,6-Diphenyl-1,2,4-triazin-3-yl)hydrazineylidene)methyl)phenoxy)methyl)-1H-1,2,3-triazol-1-yl)-N-(m-tolyl)acetamide] |  | 74.8 | 80.67 | 93 | 96 | < 15 | 100 | Inhibation (α-glucosidase [2]; Conc. 120 (unit not given)): 97; decrease of inhibitory activity relative to un-substituted derivative 13a (α-glucosidase [2]): 2.25 fold
